From patent US11746370B2, “Methods and compositions for assessing and treating intraocular diseases and disorders” (SMILEBIOTEK ZHUHAI LIMITED, priority 2017, dated 2023)
Entries after “also recorded” stand apart in the source; their conditions may differ.

What was measured:
Bacillus megaterium [1] = assay: Antibiotic sensitivity screening test in petri dishes, minimum inhibitory concentration (MIC) method; format: cell-based; details: FIG. 27; for sensitivity of Bacillus megaterium / control of its growth in vitro: agar medium with antibiotic, 1*10^7 bacteria per culture, 37° C., 24 h
Procedure: The bacterial culture medium (HuanKai Microbial, Guangzhou, China) containing peptone 5 g, beef extract 3 g, NaCl 5 g, agar 15 g, and MnSO4 5 mg in 1 L ddH2O (pH=7.2) was prepared in conical flask (Drtech, Guangzhou, China) and was sterilized in the autoclave (HIRAYAMA, HEV-50, Japan) at 121° C. for 30 min. Antibiotics (ampicillin, vancomycin, neomycin, metronidazole, and tetracycline, purchased from Sigma, USA) at various concentrations were added into cooled medium. Bacillus megaterium (total 1*10^7 per culture) was cultured in the incubator (HettCube 200, Germany) at 37° C. for 24 h.
To test whether antibiotics can control the growth of Bacillus megaterium in vitro and in vivo, an antibiotic sensitivity screening test in petri dishes was carried out. The sensitivity of Bacillus megaterium to several major antimicrobial agents including Ampicillin, vancomycin, neomycin, metronidazole, and tetracycline were examined using the minimum inhibitory concentration (MIC) method.

Bacillus megaterium [2] = assay: Bacillus megaterium subretinal inoculation model, bacteria-induced drusenoid pathology in monkey retinal tissues; format: in vivo; details: intravitreous 0.5 mg, one injection on Day 2 post bacterial inoculation, FIG. 28
Procedure: The macaques were sedated by intramuscular injection of a mixture of tiletamine hydrochloride (2.5 mg/kg) and xolazepam hydrochloride (2.5 mg/kg). After instilling topical anesthesia (0.5% proparacaine hydrochloride), the eyes were immediately visualized in vivo using a light microscope. The pupils were then dilated with 0.5% tropicamide and 0.5% phenylephrine to obtain the fundus photographs. Then a 35 gauge anterior chamber cannula was inserted through a sclerotomy and advanced through the vitreous. Under microscopic monitoring, […] of PBS (with or without bacteria) was injected into the subretinal space between photo receptors and RPE, using a NanoFil Syringe Nanofil-100 for Microinjection (World Precision Instruments, USA). All procedures were done using sterile instruments. The macaque was euthanized 47 days post inoculation and the eyeball was enucleated for histological analyses. The eyeballs were fixed in 4% paraformaldehyde for 48 h and then embedded in paraffin. Sections were cut on a microtome at 6 μm and stained with H&E.
(§1) Next, Bacillus megaterium subretinal inoculation model was used to test whether antibiotics might be able to change the bacteria-induced drusenoid pathology in monkey retinal tissues.

[3] = Intraocular administration in monkey, ocular complications; format: in vivo; details: data not shown
Description: as §1

| Molecule | sensitivity of Bacillus megaterium / control of its growth in vitro (Bacillus megaterium [1]) | size of drusenoid lesion in retinal tissue (Bacillus megaterium [2]) | fold less effective in controlling the growth of Bacillus megaterium (Bacillus megaterium [1]; compared with neomycin) [fold] | ocular complications [3] |
| --- | --- | --- | --- | --- |
| CN[C@H](CC(C)C)C(=O)N[C@H]1C(=O)N[C@@H](CC(N)=O)C(=O)N[C@H]2C(=O)N[C@H]3C(=O)N[C@H](C(=O)N[C@H](C(=O)O)c4cc(O)cc(O)c4-c4cc3ccc4O)[C@H](O)c3ccc(c(Cl)c3)Oc3cc2cc(c3O[C@@H]2O[C@H](CO)[C@@H](O)[C@H](O)[C@H]2O[C@H]2C[C@](C)(N)[C@H](O)[C@H](C)O2)Oc2ccc(cc2Cl)[C@H]1O [vancomycin] | able to inhibit the growth | reduction in the size of drusenoid lesion | – | – |
| Cc1ncc([N+](=O)[O-])n1CCO [metronidazole] | – | – | 10000 | – |
| neomycin | most sensitive; also recorded: best in vitro activity | – | – | significant ocular complications including ophthalmatrophia |
